Source: US7105312B2, “Ca2+/calmodulin-dependent protein kinase IV” (Duke University, priority 2001, dated 2006)

How the values were obtained:
p38 = p38 activation in neutrophils in response to fMLP or TPA; format: cell-based, mice or humans; conditions: in response to either fMLP or TPA
Procedure: (§1) In isolated peripheral neutrophils from normal mice or humans, the responses of neutrophils to stimulation by the chemotactic peptide, fMLP, or by the phorbol ester, PMA, was evaluated. […] It was known that the […], p38, is required for the respiratory burst that follows neutrophil activation. […] BM neutrophils have been isolated from normal and Camk4−/− mice and p38 activation in response to PMA has been evaluated.

[1] = tested on: isolated peripheral neutrophils; experiment: Neutrophil respiratory burst and hydrogen peroxide production after stimulation by fMLP or PMA; format: cell-based; conditions: isolated peripheral neutrophils from normal mice or humans
Procedure: as §1

In the case of COc1ccc(S(=O)(=O)N(CCO)c2ccccc2CN(C)C/C=C/c2ccc(Cl)cc2)cc1 [KN-93], the p38 activation (p38) is reported as “prevented”, the hydrogen peroxide production [1] is reported as “completely inhibited” and the respiratory burst [1] is reported as “completely inhibited”.
